Patent US12435087B2, “Modulators of DCN-1 and methods of use thereof” (Cellarity, Inc., priority 2023, dated 2025)
Where two headings read alike, the source gives them in different places.

Biological target: DCN1 (DCUND1) protein PONY domain (Homo sapiens (Human), UniProt Q96GG9)
Test: TR-FRET assay (binding to DCN-1, displacement of FAM-labeled probe)
Summary of the method: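 Compounds read at 1, 5 and 24 h, 0.1% final DMSO, by TR-FRET between terbium-streptavidin on biotinylated DCN1 PONY domain (E. coli) and a FAM-tagged non-covalent inhibitor probe. Two setups used, 5 nM protein with 20 nM labelled probe, or 0.31 nM protein with 100 nM labelled plus 800 nM unlabelled probe; buffer had TritonX and 200 mM NaCl. % activity relative to high (with probe) and low (without probe) controls.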

[1] = 24 hr after treatment with compound, read-out: TR FRET IC50 24 hr
[2] = TR FRET IC50 1 hr (nM), 1 hr after treatment with compound
[3] = read-out: TR FRET IC50 1 hr, 1 hr after treatment with compound

Sequence of DCN1 (DCUND1) protein PONY domain (Q96GG9 60-248): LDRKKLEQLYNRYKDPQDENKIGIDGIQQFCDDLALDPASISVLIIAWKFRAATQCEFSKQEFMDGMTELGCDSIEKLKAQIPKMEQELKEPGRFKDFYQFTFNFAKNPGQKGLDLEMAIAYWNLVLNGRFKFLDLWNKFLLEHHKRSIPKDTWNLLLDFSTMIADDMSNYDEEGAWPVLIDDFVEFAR

Row | SMILES | IC50 [1] [nM] | IC50 [2] [nM] | IC50 [3] [nM]
1 | C=C(C(=O)N(C)Cc1cccc([C@@H]2c3cnn(-c4ccccc4)c3N(CC)C(=O)[C@H]2NC(=O)c2ccn(C3CC3)n2)c1)C(C)N1CC2CC(C1)O2 (stereo partly drawn) [Compound I-286] | ≤ 200 | 1000 to 3000 | –
2 | C=C(C(=O)NCc1cccc([C@@H]2c3cnn(-c4ccccc4)c3N(CC)C(=O)[C@H]2NC(=O)c2ccn(C(F)(F)F)n2)c1)C(C)N1CC2CC(C1)O2 (stereo partly drawn) [Compound I-287] | ≤ 200 | – | ≤ 200
3 | C/C=C(\CN1CCN(C2COC2)CC1)C(=O)NCc1cccc([C@@H]2c3cnn(-c4ccccc4)c3N(CC)C(=O)[C@H]2NC(=O)c2ccn(C3CC3)n2)c1 [Compound I-288] | ≤ 200 | 200 to 1000 | –
4 | C=C(CN1C2CCC1COC2)C(=O)NCc1cccc([C@@H]2c3cnn(-c4ccccc4)c3N(CC)C(=O)[C@H]2NC(=O)c2cccc(C(F)(F)F)c2)c1 [Compound I-289] | ≤ 200 | – | ≤ 200
5 | C=C(CN1CC2CC(C1)O2)C(=O)NCc1cccc([C@@H]2c3cnn(-c4ccccc4)c3N(CC)C(=O)[C@H]2NC(=O)c2cccc(C(F)(F)F)c2)c1 [Compound I-290] | ≤ 200 | – | ≤ 200
6 | C=C(CN1CC(O)C1)C(=O)NCc1cccc([C@@H]2c3cnn(-c4ccccc4)c3N(CC)C(=O)[C@H]2NC(=O)c2cccc(C(F)(F)F)c2)c1 [Compound I-291] | ≤ 200 | – | ≤ 200
7 | C=C(CN1CC2CCC(C1)O2)C(=O)NCc1cccc([C@@H]2c3cnn(-c4ccccc4)c3N(CC)C(=O)[C@H]2NC(=O)c2nccc(C(F)(F)F)n2)c1 [Compound I-292] | ≤ 200 | – | ≤ 200
8 | C=C(CN1CC2CCC1CO2)C(=O)NCc1cccc([C@@H]2c3cnn(-c4ccccc4)c3N(CC)C(=O)[C@H]2NC(=O)c2cccc(C(F)(F)F)c2)c1 (stereo partly drawn) [Compound I-293] | ≤ 200 | – | ≤ 200
9 | C=C(CN1CC2CC1CO2)C(=O)NCc1cccc([C@H]2c3c(C)nn(-c4ccccc4)c3N(CC)C(=O)[C@@H]2NC(=O)c2cccc(C(F)(F)F)c2)c1 (stereo partly drawn) [Compound I-294] | ≤ 200 | 200 to 1000 | –
10 | C=C(CN1CCOCC1)C(=O)N(C)Cc1cccc([C@@H]2c3cnn(-c4ccccc4)c3N(CC)C(=O)[C@H]2NC(=O)c2ccn(C(F)(F)F)n2)c1 [Compound I-295] | ≤ 200 | 1000 to 3000 | –
11 | C=C(C(=O)NCc1cccc([C@@H]2c3cnn(-c4ccccc4)c3N(CC)C(=O)[C@H]2NC(=O)c2ccn(C(F)(F)F)n2)c1)C(C)N1CCOCC1 (stereo partly drawn) [Compound I-296] | ≤ 200 | – | ≤ 200
12 | C=C(CN1CCOCC1)C(=O)NCc1cccc([C@@H]2c3cnn(-c4ccccc4)c3N(CC)C(=O)[C@H]2NC(=O)c2ccn(CC(F)(F)F)n2)c1 [Compound I-297] | ≤ 200 | 200 to 1000 | –
13 | C=C(CN1CCOCC1)C(=O)N[C@@H](C)c1cccc([C@@H]2c3cnn(-c4ccccc4)c3N(CC)C(=O)[C@H]2NC(=O)c2nccc(C(F)(F)F)n2)c1 [Compound I-299] | 1000 to 3000 | 1000 to 3000 | –
14 | C/C=C(\CN1CCN(C2COC2)CC1)C(=O)N(C)c1cccc([C@@H]2c3cnn(-c4ccccc4)c3N(CC)C(=O)[C@H]2NC(=O)c2csc(C(F)(F)F)n2)c1 [Compound I-301, N-((4R,5S)-7-ethyl-4-(3-((E)-N-methyl-2-((4-(oxetan-3-yl)piperazin-1-yl)methyl)but-2-enamido)phenyl)-6-oxo-1-phenyl-4,5,6,7-tetrahydro-1H-pyrazolo[3,4-b]pyridin-5-yl)-2-(trifluoromethyl)thiazole-4-carboxamide] | 200 to 1000 | 1000 to 3000 | –
15 | C/C=C(\CN1CC2(COC2)C1)C(=O)NCc1cccc([C@@H]2c3cnn(-c4ccccc4)c3N(CC)C(=O)[C@H]2NC(=O)c2ccn(C(F)(F)F)n2)c1 [Compound I-302] | ≤ 200 | 200 to 1000 | –
16 | C=C(CN1CCC1)C(=O)NCc1cccc([C@@H]2c3c(C)nn(-c4ccccc4)c3N(CC)C(=O)[C@H]2NC(=O)c2cccc(C(F)(F)F)c2)c1 [Compound I-303] | ≤ 200 | – | ≤ 200
17 | C=C(CN1CC2(COC2)C1)C(=O)NCc1cccc([C@H]2c3c(C)nn(-c4ccccc4)c3N(CC)C(=O)[C@H]2NC(=O)c2cccc(C(F)(F)F)c2)c1 [Compound I-304] | 200 to 1000 | 1000 to 3000 | –
18 | CCN1C(=O)[C@@H](NC(=O)c2cccc(C(F)(F)F)c2)[C@H](c2cccc(CNC/C=C/C(=O)OC(C)(C)C)c2)c2cnn(-c3ccccc3)c21 [Compound I-306, tert-butyl (E)-4-((3-((4R,5S)-7-ethyl-6-oxo-1-phenyl-5-(3-(trifluoromethyl)benzamido)-4,5,6,7-tetrahydro-1H-pyrazolo[3,4-b]pyridin-4-yl)benzyl)amino)but-2-enoate] | 200 to 1000 | 1000 to 3000 | –
19 | CCN1C(=O)[C@@H](NC(=O)c2cccc(C(F)(F)F)c2)[C@H](c2cccc(CNC/C=C/C(=O)N3CCCC3)c2)c2cnn(-c3ccccc3)c21 [Compound I-307] | 1000 to 3000 | 1000 to 3000 | –
20 | C=C(CN1CCOCC1)C(=O)NCc1cccc([C@@H]2c3cnn(-c4ccccc4)c3N(CC)C(=O)[C@H]2NC(=O)c2ccn(C(F)F)n2)c1 [Compound I-308] | ≤ 200 | 200 to 1000 | –
21 | C/C=C(\CN1CCC1)C(=O)NCc1cccc([C@@H]2c3cnn(-c4ccccc4)c3N(CC)C(=O)[C@H]2NC(=O)c2ccn(C3CC3)n2)c1 [Compound I-309] | ≤ 200 | ≤ 200 | –

Row | SMILES | IC50 [1] [nM] | IC50 [2] [nM] | IC50 [3] [nM]
22 | C=C(C(=O)NCc1cccc([C@@H]2c3cnn(-c4ccccc4)c3N(CC)C(=O)[C@H]2NC(=O)c2nccc(C(F)(F)F)n2)c1)C(C)N1CCN(C2COC2)CC1 (stereo partly drawn) [Compound I-310] | ≤ 200 | – | ≤ 200
23 | C=C(CN(C)C1COC1)C(=O)NCc1cccc([C@@H]2c3c(C)nn(-c4ccccc4)c3N(CC)C(=O)[C@H]2NC(=O)c2cccc(C(F)(F)F)c2)c1 [Compound I-312] | ≤ 200 | – | ≤ 200
24 | C=C(C(=O)N(C)Cc1cccc([C@@H]2c3cnn(-c4ccccc4)c3N(CC)C(=O)[C@H]2NC(=O)c2ccn(C(F)(F)F)n2)c1)C(C)N(C)C1COC1 (stereo partly drawn) [Compound I-313] | ≤ 200 | 1000 to 3000 | –
25 | C/C=C(\CN1CCC1)C(=O)NCc1cccc([C@@H]2c3cnn(-c4ccccc4)c3N(CC)C(=O)[C@H]2NC(=O)c2nccc(C(F)(F)F)n2)c1 [Compound I-314] | ≤ 200 | 200 to 1000 | –
26 | C=C(CN1CC2CC(C1)O2)C(=O)NCc1cccc([C@@H]2c3cnn(-c4ccccc4)c3N(CC)C(=O)[C@H]2NC(=O)c2ccn(C(F)(F)F)n2)c1 [Compound I-315] | ≤ 200 | – | ≤ 200
27 | C=C(C(=O)NCc1cccc([C@@H]2c3cnn(-c4ccccc4)c3N(CC)C(=O)[C@H]2NC(=O)c2cccc(C(F)(F)F)c2)c1)C(C)N1CCN(C2COC2)CC1 (stereo partly drawn) [Compound I-317] | ≤ 200 | – | ≤ 200
28 | C=C(CN(C)C1COC1)C(=O)N(C)Cc1cccc([C@@H]2c3cnn(-c4ccccc4)c3N(CC)C(=O)[C@H]2NC(=O)c2csc(C(F)(F)F)n2)c1 [Compound I-318] | ≤ 200 | 200 to 1000 | –
29 | CCN1C(=O)[C@@H](NC(=O)c2cccc(C(F)(F)F)c2)[C@H](c2cncc(NC(=O)C3=CCC3)c2)c2cnn(-c3ccccc3)c21 [Compound I-319] | 200 to 1000 | 1000 to 3000 | –
30 | CCN1C(=O)[C@@H](NC(=O)c2cccc(C(F)(F)F)c2)[C@H](c2cncc(NC(=O)/C=C/CN(C)C)c2)c2cnn(-c3ccccc3)c21 [Compound I-320] | 200 to 1000 | 1000 to 3000 | –
31 | C/C=C(\CN1CC2(COC2)C1)C(=O)N(C)Cc1cccc([C@@H]2c3cnn(-c4ccccc4)c3N(CC)C(=O)[C@H]2NC(=O)c2ccn(C(F)(F)F)n2)c1 [Compound I-321] | 1000 to 3000 | 1000 to 3000 | –
32 | C/C=C(\CN(C)C1COC1)C(=O)NCc1cccc([C@@H]2c3cnn(-c4ccccc4)c3N(CC)C(=O)[C@H]2NC(=O)c2nccc(C(F)(F)F)n2)c1 [Compound I-322] | ≤ 200 | 1000 to 3000 | –
33 | CCN1C(=O)[C@@H](NC(=O)c2ccn(C(F)(F)F)n2)[C@H](c2cccc(NC(=O)C3=CCN(C)C3)c2)c2c(C)nn(-c3ccccc3)c21 [Compound I-323] | ≤ 200 | 200 to 1000 | –
34 | C=C(C(=O)NCc1cccc([C@@H]2c3cnn(-c4ccccc4)c3N(CC)C(=O)[C@H]2NC(=O)c2nccc(C(F)(F)F)n2)c1)C(C)N1CC2CC(C1)O2 (stereo partly drawn) [Compound I-324] | ≤ 200 | – | ≤ 200
35 | C=C(C(=O)NCc1cccc([C@@H]2c3cnn(-c4ccccc4)c3N(CC)C(=O)[C@H]2NC(=O)c2ccn(C3CC3)n2)c1)C(C)N1CCC12COC2 (stereo partly drawn) [Compound I-325] | – | 200 to 1000 | –
36 | C/C=C(\CN1CCOCC1)C(=O)N(C)Cc1cccc([C@@H]2c3cnn(-c4ccccc4)c3N(CC)C(=O)[C@H]2NC(=O)c2nccc(C(F)(F)F)n2)c1 [Compound I-326] | 1000 to 3000 | 1000 to 3000 | –
37 | C=C(C(=O)NCc1cccc([C@@H]2c3cnn(-c4ccccc4)c3N(CC)C(=O)[C@H]2NC(=O)c2ccn(C3CC3)n2)c1)C(C)N(C)C1COC1 (stereo partly drawn) [Compound I-327] | ≤ 200 | – | ≤ 200
38 | CCN1C(=O)[C@@H](NC(=O)c2cccc(C(F)(F)F)c2)[C@@H](c2cncc(NC(=O)/C=C/CN(C)C)c2)c2cnn(-c3ccccc3)c21 [Compound I-329] | 1000 to 3000 | 1000 to 3000 | –
39 | CCN1C(=O)[C@@H](NC(=O)c2nccc(C(F)(F)F)n2)[C@H](c2cccc(C(=O)N3C[C@@H](F)C[C@H]3C#N)c2)c2cnn(-c3ccccc3)c21 [Compound I-330] | 1000 to 3000 | 1000 to 3000 | –
40 | C=C(Cn1cc(F)cn1)C(=O)NCc1cccc([C@@H]2c3cnn(-c4ccccc4)c3N(CC)C(=O)[C@H]2NC(=O)c2nccc(C(F)(F)F)n2)c1 [Compound I-331] | 200 to 1000 | 1000 to 3000 | –
41 | C=C(CN1CCC12COC2)C(=O)NCc1cccc([C@@H]2c3cnn(-c4ccccc4)c3N(CC)C(=O)[C@H]2NC(=O)c2cccc(C(F)(F)F)c2)c1 [Compound I-332] | ≤ 200 | – | ≤ 200
